Data from US6251948A, “Tri-and tetra-substituted guanidines and their use as excitatory amino acid antagonists” (State of Oregon, acting by and through the Oregon State …, priority 1995, dated 2001).
Counter-ions that a name gives are not always drawn.

How the values were obtained:
[1] = system: lesions caused by NMDA injection; assay: In vivo neurotoxicity assay: NMDA-induced lesion (model of McDonald et al.); design: species or system rat; settings: 0.1 to 100 umol/kg of body weight; intraperitoneal, 15 minutes following cerebral NMDA injection
From the text: In the in vivo neurotoxicity studies, the experimental model of McDonald, J. W., et al., (In: Sigma and Phencyclidine-like Compounds as Molecular Probes in Biology, Ed. Domino, E. F., and Kamenka, J.-M., pp. 697-707 (1988), NPP Books, Ann Arbor, Mich.) can be employed. In this model, an NMDA injection into one cerebral hemisphere of a rat pup causes brain injury which resembles the lesion produced by hypoxia-ischemia. The ability of test compounds to limit the NMDA-induced lesion is a measure of their neuroprotective properties; and, since the compounds are administered intraperitoneally, the model also provides information about a compound's ability to cross the blood-brain barrier.
The experimental model of McDonald, J. W., et al., supra, was employed with the single alteration in protocol of an intraperitoneal injection of the test compound 15 minutes following, rather than preceding, the cerebral NMDA injection.

sigma brain receptor = settings: Weber et al. 1986; U.S. Pat. No. 4,709,094; cited from earlier work
Korsakoff's disease = settings: pretreatment; rat model; cited from earlier work

CCc1cccc(N(C)C(=N)Nc2cccc3ccccc23)c1 [Compound VII, N-(1-Naphthyl)-N'-(m-ethylphenyl)-N'-methylquanidine Hydrochloride]
protection against the lesions caused by NMDA injection [1]: protect against the lesions caused by NMDA injection

Cc1ccccc1NC(=N)Nc1ccccc1C [DTG, 1,3 di-o-tolyl-guanidine]
selectivity for the sigma receptor (sigma brain receptor): strong selectivity for the sigma receptor

C[C@]12N[C@H](Cc3ccccc31)c1ccccc12 [MK-801, (+)-5-methyl-10,11-dihydro-5H-dibenzo[a,d]cycloheptene-5,10-imine]
extent of cell loss, hemorrhages and amino acid changes (Korsakoff's disease): markedly attenuates the extent of cell loss, hemorrhages and amino acid changes
